Data from patent publication US20040014779A1, “Methods and compositions related to IRM compounds and toll-like recptor pathways” (3M Innovative Properties Company, priority 2001, published 2004).

Key:
TLR6 [1] = target: T1, TLR6 (Mus musculus, UniProt Q9EPW9, P680H); assay: TNF-α production by RAW 264.7 cells transfected with TLR6DN; assay type: cell-based
T1 construct: expressed in transfected cells; host or cells: RAW 264.7 (pIRES vector)
Source text: A murine TLR6 dominant negative construct was generated by PCR mutation during amplification from RAW 264.7 cell cDNA. The 5′ and 3′ regions flanking a codon encoding proline 691 were amplified with primers (5′ sense: SEQ ID NO 1; 5′ antisense: SEQ ID NO 2; 3′sense: SEQ ID NO 3; 3′ antisense: SEQ ID NO 4) that changed the codon for proline 691 to a codon encoding histidine while introducing a unique Apa LI restriction enzyme site at the position of the mutation. The 5′ and 3′ sections of the TLR6 were amplified by Pfu Turbo DNA polymerase kit (Stratagene, La Jolla, Calif.). The PCR sections were inserted into pCR-Blunt II-TOPO for sequence verification. The two sections were joined together when subcloned into pIRES (Clontech, Palo Alto, Calif.) for expression in mammalian cells.
RAW 264.7 cells were co-transfected with a truncated human CD4 for RAW 264.7 cells in a 4:1 ratio of TLR plasmid to CD4 plasmid. Transfection of RAW 264.7 cells was carried out using the transfection reagent DoTaP (Roche Diagnostics Corp., Indianapolis, Ind.) according to the manufacturer's specifications. […]
TNF-α levels were measured with a commercial Human TNF-α ELISA kit (Biosource International, Inc., Camarillo, Calif.) according to the manufacturer's specifications. […]

TLR6 [2] = target: T2, TLR6 (Mus musculus, UniProt Q9EPW9); assay: IRM-stimulated TNF-α production by RAW 264.7 cells overexpressing TLR6; assay type: cell-based, murine
T2 construct: expressed in transfected cells; host or cells: RAW 264.7 (pIRES vector)
Source text: The murine TLR wild-type vectors were generated by PCR amplification from RAW 264.7 cell cDNA with TLR6 specific primers (sense primer: SEQ ID NO 13; antisense primer: SEQ ID NO 14) or TLR7 specific primers (sense primer: SEQ ID NO 15; antisense primer: SEQ ID NO 16) by Pfu Turbo DNA polymerase kit (Stratagene, La Jolla, Calif.). The PCR products were inserted into pCR-Blunt II-TOPO for sequence verification and then subcloned into pIRES (BD Biosciences Clontech, Palo Alto, Calif.) for expression in mammalian cells.
THP-1 cells or RAW 264.7 cells were cultured and transfected with the wild type TLR 6 or wild type TLR 7 plasmids described above. The transfections were performed as in Example 1 with a 4:1 ratio of wild-type TLR to H2K plasmid (THP-1 cells) or CD4 (RAW 264.7 cells).
RAW 264.7 cells were stimulated with various concentrations of resiquimod and analyzed as described in Example 1. Results are provided in Table 4 and are expressed as fold increase in TNF-α production as compared to control transfected RAW 264.7 cells.

T2 sequence (Q9EPW9 28-795): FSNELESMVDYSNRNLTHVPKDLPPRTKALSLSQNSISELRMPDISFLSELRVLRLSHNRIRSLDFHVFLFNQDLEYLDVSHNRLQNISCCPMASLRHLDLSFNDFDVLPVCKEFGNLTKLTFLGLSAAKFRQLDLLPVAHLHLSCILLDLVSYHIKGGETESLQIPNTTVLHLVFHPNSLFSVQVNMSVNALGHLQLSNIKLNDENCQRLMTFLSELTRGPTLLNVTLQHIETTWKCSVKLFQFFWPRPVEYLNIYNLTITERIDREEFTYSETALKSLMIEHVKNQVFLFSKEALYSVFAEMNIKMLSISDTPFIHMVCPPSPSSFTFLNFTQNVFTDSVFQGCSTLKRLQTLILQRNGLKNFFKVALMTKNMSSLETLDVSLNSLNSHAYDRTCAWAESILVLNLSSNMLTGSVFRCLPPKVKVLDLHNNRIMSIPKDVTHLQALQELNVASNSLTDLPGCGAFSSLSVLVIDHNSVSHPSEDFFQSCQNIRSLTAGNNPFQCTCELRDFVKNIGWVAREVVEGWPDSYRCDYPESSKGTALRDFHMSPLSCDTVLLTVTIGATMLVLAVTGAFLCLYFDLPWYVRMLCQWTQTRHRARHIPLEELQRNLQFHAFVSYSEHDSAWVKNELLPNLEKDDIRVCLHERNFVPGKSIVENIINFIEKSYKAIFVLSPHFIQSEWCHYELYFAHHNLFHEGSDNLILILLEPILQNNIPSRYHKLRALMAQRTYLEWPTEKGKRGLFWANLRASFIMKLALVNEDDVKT
T2 sequence (Q9QUN7 25-784 partner): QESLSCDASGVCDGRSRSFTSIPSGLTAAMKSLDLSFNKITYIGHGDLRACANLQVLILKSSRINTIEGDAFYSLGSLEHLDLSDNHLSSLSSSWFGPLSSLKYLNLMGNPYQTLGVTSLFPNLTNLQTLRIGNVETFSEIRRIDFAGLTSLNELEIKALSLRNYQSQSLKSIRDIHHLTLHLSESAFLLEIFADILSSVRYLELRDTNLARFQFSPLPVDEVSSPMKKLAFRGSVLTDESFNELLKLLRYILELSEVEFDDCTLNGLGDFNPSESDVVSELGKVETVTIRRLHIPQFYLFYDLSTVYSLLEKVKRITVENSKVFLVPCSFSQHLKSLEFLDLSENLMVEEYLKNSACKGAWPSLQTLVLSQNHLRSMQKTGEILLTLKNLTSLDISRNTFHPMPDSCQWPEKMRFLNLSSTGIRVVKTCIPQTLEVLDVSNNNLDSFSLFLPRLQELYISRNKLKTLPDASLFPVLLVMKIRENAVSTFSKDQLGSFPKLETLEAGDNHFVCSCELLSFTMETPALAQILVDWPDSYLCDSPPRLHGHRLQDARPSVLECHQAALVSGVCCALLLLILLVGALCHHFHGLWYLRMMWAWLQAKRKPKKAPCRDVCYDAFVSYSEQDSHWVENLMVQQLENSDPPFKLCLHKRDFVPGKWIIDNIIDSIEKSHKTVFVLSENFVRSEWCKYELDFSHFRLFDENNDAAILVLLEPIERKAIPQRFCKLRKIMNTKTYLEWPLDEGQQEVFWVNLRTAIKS
T1 sequence (Q9EPW9 28-795 P680H): as the sequence (Q9EPW9 28-795) above, with P653H counted along it
T1 sequence (Q9QUN7 25-784 partner): as the sequence (Q9QUN7 25-784 partner) above

CCOCc1nc2c(N)nc3ccccc3c2n1CC(C)(C)O [Resiquimod, 4-amino-2-ethoxymethyl-α,α-dimethyl-1H-imidazo[4,5-c]quinoline-1-ethanol]
Effect of TLR6DN on stimulus-induced TNF-α production (in words) (TLR6 [1]; compared with stimulation by LPS): inhibited to a much greater extent
% inhibition of TNF-α production (TLR6DN) (TLR6 [1]; stimulus 3 μM): 70.9%
Fold increase in TNF-α production over control, TLR6 (TLR6 [2]; RAW 264.7 overexpressing TLR6, 0.0004 μM): 9.6 fold
Fold increase in TNF-α production over control, TLR6 (TLR6 [2]; RAW 264.7 overexpressing TLR6, 0.001 μM): 8.0 fold
Fold increase in TNF-α production over control, TLR6 (TLR6 [2]; RAW 264.7 overexpressing TLR6, 0.004 μM): 9.2 fold
Fold increase in TNF-α production over control, TLR6 (TLR6 [2]; RAW 264.7 overexpressing TLR6, 0.012 μM): 3.5 fold
Fold increase in TNF-α production over control, TLR6 (TLR6 [2]; RAW 264.7 overexpressing TLR6, 0.037 μM): 3.9 fold
Fold increase in TNF-α production over control, TLR6 (TLR6 [2]; RAW 264.7 overexpressing TLR6, 1 μM): 1.4 fold
Fold increase in TNF-α production over control, TLR6 (TLR6 [2]; RAW 264.7 overexpressing TLR6, 3 μM): 1.7 fold
Fold increase in TNF-α production over control, TLR6 (TLR6 [2]; RAW 264.7 overexpressing TLR6, 10 μM): 1.8 fold
TLR6 agonist character (in words) (TLR6 [2]; from TLR6 overexpression in RAW 264.7 cells): agonist
